Data taken from ChEMBL document CHEMBL1201862, “PubChem BioAssay data set” (2004).
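Following 48 hours of exposure in 96-well plates, responses at five concentrations were used to interpolate endpoints linearly. GI50 = concentration required for 50% inhibition of growth.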 Activity calls are given as the source filed them. No stated cut-off is given here; in the data, active = GI50 up to about 1.1 µM and inactive = higher.

How the values were obtained:
Assay in all cases: inhibition of tumour cell growth, NCI panel, 48 h
[1] = system: NCI-H460
[2] = system: SK-MEL-2
[3] = system: Malme-3M
[4] = system: PC-3
[5] = system: RXF 393
[6] = system: OVCAR-5
[7] = system: HCT-116
[8] = system: OVCAR-4
[9] = system: HCC 2998
[10] = system: SR
[11] = system: 786-0
[12] = system: SF-539
[13] = system: TK-10
[14] = system: CCRF-CEM
[15] = system: DU-145
[16] = system: HT-29
[17] = system: SF-268
[18] = system: SK-MEL-5
[19] = system: SNB-19
[20] = system: ACHN
[21] = system: HOP-92
[22] = system: UACC-257
[23] = system: OVCAR-3
[24] = system: HOP-62
[25] = system: HCT-15
[26] = system: HL-60
[27] = system: MOLT-4
[28] = system: NCI-H23
[29] = system: NCI-H522
[30] = system: SF-295
[31] = system: SNB-75
[32] = system: NCI-H226
[33] = system: K562
[34] = system: CAKI-1
[35] = system: SK-MEL-28
[36] = system: UO-31
[37] = system: T47D
[38] = system: A549
[39] = system: U-251
[40] = system: SW-620
[41] = system: MCF7
[42] = system: MDA-N
[43] = system: IGROV-1
[44] = system: SK-OV-3
[45] = system: Hs-578T
[46] = system: UACC-62
[47] = system: SN12C
[48] = system: MDA-MB-435
[49] = system: EKVX
[50] = system: MDA-MB-231
[51] = system: COLO 205
[52] = system: KM12
[53] = system: LOX IMVI
[54] = system: A498
[55] = system: OVCAR-8
[56] = system: NCI/ADR-RES
[57] = system: M14
[58] = system: RPMI-8226

SMILES: O=C1C(NCCc2cc(Br)c(O)c(Br)c2)=CC(=O)c2ncccc21
- GI50 [1]: 2.37 µM (inactive)
- GI50 [2]: 8.07 µM (inactive)
- GI50 [3]: 1.26 µM (inactive)
- GI50 [4]: 20.9 µM (inactive)
- GI50 [5]: 7.93 µM (inactive)
- GI50 [6]: 6.52 µM (inactive)
- GI50 [7]: 3.71 µM (inactive)
- GI50 [8]: 6 µM (inactive)
- GI50 [9]: 6.58 µM (inactive)
- GI50 [10]: 1.87 µM (inactive)
- GI50 [11]: 7.29 µM (inactive)
- GI50 [12]: 2.37 µM (inactive)
- GI50 [13]: 17.1 µM (inactive)
- GI50 [14]: 3.39 µM (inactive)
- GI50 [15]: 3.66 µM (inactive)
- GI50 [16]: 3.63 µM (inactive)
- GI50 [17]: 8.32 µM (inactive)
- GI50 [18]: 1.47 µM (inactive)
- GI50 [19]: 3.86 µM (inactive)
- GI50 [20]: 6.38 µM (inactive)
- GI50 [21]: 28.1 µM (inactive)
- GI50 [22]: 2.88 µM (inactive)
- GI50 [23]: 1.84 µM (inactive)
- GI50 [24]: 3.28 µM (inactive)
- GI50 [25]: 5.79 µM
- GI50 [26]: 2.32 µM (inactive)
- GI50 [27]: 6.71 µM (inactive)
- GI50 [28]: 0.659 µM (active)
- GI50 [29]: 3.17 µM (inactive)
- GI50 [30]: 2.34 µM (inactive)
- GI50 [31]: 1.31 µM (inactive)
- GI50 [32]: 2.29 µM (inactive)
- GI50 [33]: 3.21 µM (inactive)
- GI50 [34]: 7.29 µM (inactive)
- GI50 [35]: 3.21 µM (inactive)
- GI50 [36]: 5.87 µM (inactive)
- GI50 [37]: 13.5 µM (inactive)
- GI50 [38]: 3.52 µM (inactive)
- GI50 [39]: 5.55 µM (inactive)
- GI50 [40]: 4.24 µM (inactive)
- GI50 [41]: 4.09 µM (inactive)
- GI50 [42]: 1.82 µM (inactive)
- GI50 [43]: 4.15 µM (inactive)
- GI50 [44]: 14.8 µM (inactive)
- GI50 [45]: 3.1 µM (inactive)
- GI50 [46]: 1.83 µM (inactive)
- GI50 [47]: 3.8 µM (inactive)
- GI50 [48]: 1.69 µM (inactive)
- GI50 [49]: 16.3 µM (inactive)
- GI50 [50]: 10.2 µM (inactive)
- GI50 [51]: 5.7 µM (inactive)
- GI50 [52]: 4.43 µM (inactive)
- GI50 [53]: 1.78 µM (inactive)
- GI50 [54]: 4.08 µM (inactive)
- GI50 [55]: 3.85 µM (inactive)
- GI50 [56]: 9.2 µM (inactive)
- GI50 [57]: 2.51 µM (inactive)
- GI50 [58]: 4.79 µM (inactive)

SMILES: C[N+]1(C)CN(c2ccccc2)C2(CCN(CCCC(=O)c3cccs3)CC2)C1=O
- GI50 [1]: 57 µM (inactive)
- GI50 [2]: > 100 µM (inactive)
- GI50 [3]: > 100 µM (inactive)
- GI50 [4]: > 100 µM (inactive)
- GI50 [5]: > 100 µM (inactive)
- GI50 [6]: 85.1 µM (inactive)
- GI50 [7]: 58.9 µM (inactive)
- GI50 [8]: 96.8 µM (inactive)
- GI50 [9]: 65.9 µM (inactive)
- GI50 [10]: 60 µM (inactive)
- GI50 [11]: > 100 µM (inactive)
- GI50 [12]: > 100 µM (inactive)
- GI50 [13]: > 100 µM (inactive)
- GI50 [14]: 68.4 µM (inactive)
- GI50 [15]: > 100 µM (inactive)
- GI50 [16]: 31.8 µM (inactive)
- GI50 [17]: > 100 µM (inactive)
- GI50 [18]: 28.1 µM (inactive)
- GI50 [19]: > 100 µM (inactive)
- GI50 [20]: > 100 µM (inactive)
- GI50 [21]: 35.7 µM (inactive)
- GI50 [22]: 42.4 µM (inactive)
- GI50 [23]: 94.2 µM (inactive)
- GI50 [24]: 33.4 µM (inactive)
- GI50 [25]: 56.4 µM
- GI50 [26]: > 100 µM (inactive)
- GI50 [27]: 71.6 µM (inactive)
- GI50 [28]: 82.6 µM (inactive)
- GI50 [29]: > 100 µM (inactive)
- GI50 [30]: > 100 µM (inactive)
- GI50 [31]: 27.7 µM (inactive)
- GI50 [32]: > 100 µM (inactive)
- GI50 [33]: 76 µM (inactive)
- GI50 [34]: > 100 µM (inactive)
- GI50 [35]: > 100 µM (inactive)
- GI50 [36]: 62.4 µM (inactive)
- GI50 [37]: > 100 µM (inactive)
- GI50 [38]: > 100 µM (inactive)
- GI50 [39]: > 100 µM (inactive)
- GI50 [40]: > 100 µM (inactive)
- GI50 [41]: 53.8 µM (inactive)
- GI50 [42]: > 100 µM (inactive)
- GI50 [43]: 68.1 µM (inactive)
- GI50 [44]: > 100 µM (inactive)
- GI50 [45]: 53.7 µM (inactive)
- GI50 [46]: > 100 µM (inactive)
- GI50 [47]: > 100 µM (inactive)
- GI50 [48]: > 100 µM (inactive)
- GI50 [49]: > 100 µM (inactive)
- GI50 [50]: 72.6 µM (inactive)
- GI50 [51]: 48 µM (inactive)
- GI50 [52]: > 100 µM (inactive)
- GI50 [53]: 58.1 µM (inactive)
- GI50 [54]: > 100 µM (inactive)
- GI50 [55]: > 100 µM (inactive)
- GI50 [56]: > 100 µM (inactive)
- GI50 [57]: 23.2 µM (inactive)
- GI50 [58]: 47.3 µM (inactive)
